Values joined by “and” are separate entries in the source; they are usually repeats but may differ in a detail not shown here. Identical values can stand only once. ± gives the expanded uncertainty stated by the source.
Test: activity coefficient (dimensionless); of the first substance listed, at infinite dilution; xn = mol fraction of the nth substance listed
Conditions: 101 kPa, Liquid, x1 = 0

Structure (SMILES)	activity coefficient (323.1 K)	activity coefficient (333.5 K)	activity coefficient (344 K)	activity coefficient (354.5 K)	activity coefficient (364.9 K)	activity coefficient (375.4 K)	activity coefficient (386.1 K)	activity coefficient (333.4 K)	activity coefficient (343.9 K)	activity coefficient (354.4 K)	activity coefficient (364.8 K)	activity coefficient (375.2 K)	activity coefficient (386 K)	activity coefficient (396 K)	activity coefficient (301.8 K)	activity coefficient (312.4 K)	activity coefficient (322.9 K)	activity coefficient (333.2 K)	activity coefficient (354.3 K)
CCCCO [butan-1-ol] + CCCCCC[n+]1ccn(C)c1.O=S(=O)([N-]S(=O)(=O)C(F)(F)F)C(F)(F)F	1.99 and 1.98 and 2.06	1.83 [middle of 4 runs]	1.61 [middle of 5 runs]	1.46 [middle of 5 runs]	1.34 [middle of 4 runs]	1.23 and 1.28	1.14 ± 0.12	–	–	–	–	–	–	–	–	–	–	–	–
CCCCCCO [hexan-1-ol] + CCCCCC[n+]1ccn(C)c1.O=S(=O)([N-]S(=O)(=O)C(F)(F)F)C(F)(F)F	–	–	–	–	–	–	–	2.57 ± 0.47	2.32 and 2.25 and 2.37	2.14 [middle of 7 runs]	1.95 [middle of 5 runs]	1.8 [middle of 5 runs]	1.67 and 1.69 and 1.7	1.56 ± 0.25	–	–	–	–	–
CO [methanol] + CCCCCC[n+]1ccn(C)c1.O=S(=O)([N-]S(=O)(=O)C(F)(F)F)C(F)(F)F	–	–	1 [middle of 4 runs]	–	–	–	–	–	–	–	–	–	–	–	1.46 [middle of 4 runs]	1.29 [middle of 5 runs]	1.15 and 1.25 and 1.22	1.1 [middle of 4 runs]	0.87 and 0.93 and 0.9

— the NIST ThermoML archive (doi:10.1016/j.jct.2006.07.006)
